Test results from patent publication US9730970B2, “Seaweed extracts, unsaturated aldehydes, and methods of treatment” (University of Florida Research Foundation, Inc., priority 2013, dated 2017).

System: NQO1
Test: qPCR of NQO1 transcription in IMR-32 cells
Format: cell-based, human
Method: IMR-32 cells (1×10^6 cells/well) were seeded in 6-well plates one day before treatment. Cells were treated with variable concentrations of purified compounds 1-4 for 12 h. Total RNA was extracted with the RNeasy Mini Kit (Qiagen). cDNA was synthesized from 2 μg of total RNA by using SuperScript II Reverse Transcriptase (Invitrogen) and Oligo(dT)12-18 primer (Invitrogen). Real-time PCR was performed in triplicate using GAPDH expression as internal control for normalization.

| Structure (SMILES) | activation of NQO1 transcription (20 μg/mL, 12 h) | activation of NQO1 transcription (positive control under identical conditions) |
| --- | --- | --- |
| CCC(Cl)C(O)C(O)/C=C/C=C/C=O (centres unmarked) [Compound 4, 8-chloro-6,7-dihydroxydeca-2,4-dienal] | 6.4 fold |  |
| CC(C)(C)c1cc(O)ccc1O [tBHQ, Tert-butylhydroquinone] |  | 5.9 fold |
